Data taken from ChEMBL document CHEMBL1151064, “Conformationally restricted 1,5-diarylpyrazoles are selective COX-2 inhibitors” (Bioorg Med Chem Lett, 1996).

Experiments:
[1] = molecular target: T1, Prostaglandin G/H synthase 1 (Homo sapiens, UniProt P23219); experiment: Relative activity against COX-1/COX-2
[2] = molecular target: T1, Prostaglandin G/H synthase 1; experiment: Inhibition of Prostaglandin G/H synthase 1 (COX-1)
[3] = molecular target: T2, Prostaglandin G/H synthase 2 (Homo sapiens, UniProt P35354); experiment: Inhibition of Prostaglandin G/H synthase 2 (COX-2)
T2 sequence (P35354 whole entry): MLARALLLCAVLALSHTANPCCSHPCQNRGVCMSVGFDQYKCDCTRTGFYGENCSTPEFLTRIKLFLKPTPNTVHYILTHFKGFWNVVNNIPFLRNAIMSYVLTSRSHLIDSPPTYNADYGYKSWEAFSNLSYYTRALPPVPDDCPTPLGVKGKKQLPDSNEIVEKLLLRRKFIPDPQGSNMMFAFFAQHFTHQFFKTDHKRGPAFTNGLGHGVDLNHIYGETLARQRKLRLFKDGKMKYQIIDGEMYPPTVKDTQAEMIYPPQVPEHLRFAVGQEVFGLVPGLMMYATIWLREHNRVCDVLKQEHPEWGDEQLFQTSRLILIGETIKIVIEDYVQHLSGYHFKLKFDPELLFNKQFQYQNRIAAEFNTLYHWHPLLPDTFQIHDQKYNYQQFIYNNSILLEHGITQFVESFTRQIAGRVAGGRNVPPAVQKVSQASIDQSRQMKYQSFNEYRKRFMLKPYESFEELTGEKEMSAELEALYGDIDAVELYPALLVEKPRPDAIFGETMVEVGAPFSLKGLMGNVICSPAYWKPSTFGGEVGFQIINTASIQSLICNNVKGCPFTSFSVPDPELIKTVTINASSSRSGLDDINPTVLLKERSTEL

Rattus norvegicus = experiment: Compound was tested for inhibitory activity in carrageenan rat foot edema assay; format: functional

T1 sequence (P23219 whole entry): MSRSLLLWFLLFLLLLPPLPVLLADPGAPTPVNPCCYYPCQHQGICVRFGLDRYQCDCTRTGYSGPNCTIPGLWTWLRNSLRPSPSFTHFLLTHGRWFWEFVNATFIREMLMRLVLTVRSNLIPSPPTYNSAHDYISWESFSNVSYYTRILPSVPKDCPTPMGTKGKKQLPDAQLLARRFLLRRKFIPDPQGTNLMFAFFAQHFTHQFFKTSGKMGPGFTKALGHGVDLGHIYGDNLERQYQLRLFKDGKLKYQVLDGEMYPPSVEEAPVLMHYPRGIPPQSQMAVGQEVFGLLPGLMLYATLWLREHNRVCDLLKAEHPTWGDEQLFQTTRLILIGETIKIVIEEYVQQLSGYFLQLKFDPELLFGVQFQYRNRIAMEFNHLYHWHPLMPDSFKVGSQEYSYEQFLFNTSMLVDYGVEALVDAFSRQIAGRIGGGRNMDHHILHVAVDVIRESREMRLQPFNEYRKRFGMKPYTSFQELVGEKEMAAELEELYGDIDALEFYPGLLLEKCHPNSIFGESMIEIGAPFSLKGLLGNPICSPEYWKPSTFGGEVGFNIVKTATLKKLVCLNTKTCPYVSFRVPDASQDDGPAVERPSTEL

| Ratio [1] | IC50 [2] [nM] | IC50 [3] [nM] | Compound | ED50 (Rattus norvegicus) [mg/kg] |
| --- | --- | --- | --- | --- |
| > 1330 | > 100000 | 75 | COc1cc2c(cc1F)-c1c(c(C(F)(F)F)nn1-c1ccc(S(C)(=O)=O)cc1)SC2 |  |
| 303 | 2730 | 9 | COc1cc2c(cc1F)-c1c(c(C(F)(F)F)nn1-c1ccc(S(N)(=O)=O)cc1)SC2 | 17.7 |
| > 3120 | > 100000 | 32 | COc1cc2c(cc1F)-c1c(c(C(F)F)nn1-c1ccc(S(N)(=O)=O)cc1)SC2 |  |
| 693 | 11100 | 16 | Cc1cc2c(cc1F)-c1c(c(C(F)(F)F)nn1-c1ccc(S(N)(=O)=O)cc1)SC2 | 15 |
| > 67 | > 100000 | 1500 | COc1cc2c(cc1F)-c1c(c(C(F)(F)F)nn1-c1ccc(S(N)(=O)=O)cc1)[S+]([O-])C2 (centres undefined) |  |

The remaining lines, values behind:

| Compound | Ratio [1] | IC50 [2] [nM] | IC50 [3] [nM] | ED50 (Rattus norvegicus) [mg/kg] |
| --- | --- | --- | --- | --- |
| NS(=O)(=O)c1ccc(-n2nc(C(F)(F)F)c3c2-c2cc(F)c(F)cc2CS3)cc1 | 381 | 2670 | 6 |  |
| NS(=O)(=O)c1ccc(-n2nc(C(F)(F)F)c3c2-c2ccccc2OC3)cc1 | 5.3 |  | 1330 |  |
| NS(=O)(=O)c1ccc(-n2nc(C(F)(F)F)c3c2-c2cc(F)ccc2CS3)cc1 | 297 | 6240 | 21 |  |
| NS(=O)(=O)c1ccc(-n2nc(C(F)(F)F)c3c2-c2ccccc2CS3)cc1 | 20 |  | 20 |  |
| N#Cc1nn(-c2ccc(S(N)(=O)=O)cc2)c2c1SCc1cc(F)ccc1-2 | 5 | 760 | 140 |  |
| Cc1ccc2c(c1)CSc1c(C(F)(F)F)nn(-c3ccc(S(N)(=O)=O)cc3)c1-2 | 36 | 790 | 22 |  |
| COc1ccc2c(c1)CSc1c(C(F)(F)F)nn(-c3ccc(S(N)(=O)=O)cc3)c1-2 | 23 | 300 | 13 |  |
| NS(=O)(=O)c1ccc(-n2nc(C(F)(F)F)c3c2-c2ccc(F)cc2CS3)cc1 | 7 | 270 | 40 |  |
